Results reported in patent US20170190705A1, “Compositions and Methods for Inhibiting BMP” (THE BRIGHAM AND WOMAN'S HOSPITAL, INC., priority 2014, published 2017).
Read-outs that look alike come from different tables or passages of the source.

Assays:
ALK2 = molecular target: T1, ALK2 (Homo sapiens, UniProt Q04771, Q207D); test: Thermal shift kinase assay ALK2; format: binding; settings: ALK2 minus ALK5
T1 construct: His tag (TEV-cleavable) (N, cleaved yes); made in house; host or cells: Sf9 insect cells (baculovirus)
T1 sequence (Q04771 201-499 Q207D): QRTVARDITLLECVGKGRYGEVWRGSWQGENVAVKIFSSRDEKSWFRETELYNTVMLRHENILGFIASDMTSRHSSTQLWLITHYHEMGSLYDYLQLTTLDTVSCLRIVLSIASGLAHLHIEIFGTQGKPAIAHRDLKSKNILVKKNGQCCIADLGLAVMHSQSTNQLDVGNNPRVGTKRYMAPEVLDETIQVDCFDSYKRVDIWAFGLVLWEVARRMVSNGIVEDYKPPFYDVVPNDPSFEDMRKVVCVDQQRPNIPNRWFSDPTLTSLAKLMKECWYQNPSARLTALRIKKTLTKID
Procedure: Thermal melting experiments were performed using a Real Time PCR machine Mx3005p (Stratagene) with a protein concentration of 1-2 μM and 10 μM inhibitor as described by Niesen et al., Nat Protoc 2007, 2, 2212-21. Recombinant human kinases for DSF screening were prepared by SGC using the published methods of Sanvitale et al., PLoS One 2013, 8, e62721. The potency and selectivity of certain compounds of the invention based on thermal shift kinase and ligand induced transcriptional activity assays are shown in Table 2.

BMP6 = test: Ligand induced transcriptional activity assay BMP6 (BRE-Luc); format: cell-based; settings: cell-based signaling inhibition; read-out: BMP6 IC50
[1] = test system: HePG2 hepatocarcinoma cells; format: cell-based; settings: human
Procedure: The cells were incubated for 2 h (37° C. and 5% CO2) and allowed to settle and attach. Compounds of interest or DMSO were diluted in DMEM and added at final compound concentrations of 1 μM, 10 μM, and 100 μM. Cells were incubated for 4 hours and 24 hours after which the media was discarded. Cells were lysed by adding 30 μL of passive lysis buffer (Promega) and shaken at RT for 15 min. Cell viability was determined by quantifying the ATP present in each well by adding 10 μL of CellTiter-Glo (Promega) per well and measuring the light output Spectramax L luminometer (Molecular Devices) with an integration time of one second per well. Data was normalized to 100% viability for cells receiving only DMSO without any concurrent compound.

ΔTmDiff. (ALK2)	IC50 (BMP6) [µM]	Compound	Cell viability ([1]; 4 h, 1 μM) [%]	Cell viability ([1]; 4 h, 10 μM) [%]	Cell viability ([1]; 4 h, 100 μM) [%]	Cell viability ([1]; 24 h, 1 μM) [%]	Cell viability ([1]; 24 h, 10 μM) [%]	Cell viability ([1]; 24 h, 100 μM) [%]
0.9	0.06 ± 0.01	COc1cc(-c2cc(-c3cccc(NS(C)(=O)=O)c3)cnc2N)cc(OC)c1OC [Compound 13, N-(3-(6-amino-5-(3,4,5-trimethoxyphenyl)pyridin-3-yl)phenyl)methanesulfonamide]	97	100	95	101	98	82
0.8		COc1cc(-c2cc(-c3cccc(N4CCNCC4)c3)cnc2N)cc(OC)c1OC [Compound 14, 5-(3-(piperazin-1-yl)phenyl)-3-(3,4,5-trimethoxyphenyl)pyridin-2-amine]	96	110	99	99	93	
4.3		COc1ccc(-c2cc(-c3ccc(N4CCNCC4)cc3)cnc2N)cc1OC [Compound 16, 3-(3,4-dimethoxyphenyl)-5-(4-(piperazin-1-yl)phenyl)pyridin-2-amine]						
3.5	0.04 ± 0.01	COc1cc(OC)cc(-c2cc(-c3ccc(N4CCNCC4)cc3)cnc2N)c1 [Compound 17, 3-(3,5-dimethoxyphenyl)-5-(4-(piperazin-1-yl)phenyl)pyridin-2-amine]	95	99		99	80	
3.8		COc1cccc(-c2cc(-c3ccc(N4CCNCC4)cc3)cnc2N)c1 [Compound 18, 3-(3-methoxyphenyl)-5-(4-(piperazin-1-yl)phenyl)pyridin-2-amine]	98	101	106	103	100	
4.0	0.73 ± 0.1	Nc1ncc(-c2ccc(N3CCNCC3)cc2)cc1-c1ccc2c(c1)OCCO2 [Compound 19, 3-(2,3-dihydrobenzo[b][1,4]dioxin-6-yl)-5-(4-(piperazin-1-yl)phenyl)pyridin-2-amine]	100	102	91	103	95	
4.5		COc1ccc(-c2cc(-c3ccc(N4CCNCC4)cc3)cnc2N)cc1 [Compound 20, 3-(4-methoxyphenyl)-5-(4-(piperazin-1-yl)phenyl)pyridin-2-amine]	106	102		108	104	
1.0		CC(C)Oc1cccc(-c2cc(-c3ccc(N4CCNCC4)cc3)cnc2N)c1 [Compound 21, 3-(3-isopropoxyphenyl)-5-(4-(piperazin-1-yl)phenyl)pyridin-2-amine]	94	105		98	82	
2.7	0.16 ± 0.01	COc1cc(-c2cc(-c3ccc(N4CCNCC4)cc3)cnc2N)ccc1Cl [Compound 22, 3-(4-chloro-3-methoxyphenyl)-5-(4-(piperazin-1-yl)phenyl)pyridin-2-amine]	96	104		101	81	
3.8		COc1cc(-c2cc(-c3ccc(N4CCNCC4)cc3)cnc2N)ccc1C [Compound 23, 3-(3-methoxy-4-methylphenyl)-5-(4-(piperazin-1-yl)phenyl)pyridin-2-amine]	95	101		98	86	
−0.5		CNc1ncc(-c2ccc(N3CCNCC3)cc2)cc1-c1cc(OC)c(OC)c(OC)c1 [Compound 24, N-methyl-5-(4-(piperazin-1-yl)phenyl)-3-(3,4,5-trimethoxyphenyl)pyridin-2-amine]	95	105	86	101	86	
3.4	0.11 ± 0.05	Nc1ncc(-c2ccc(N3CCNCC3)cc2)cc1-c1ccnc2ccccc12 [Compound 29]	91	104	108	108	84	
2.5	0.52 ± 0.06	Nc1ncc(-c2cccc(N3CCNCC3)c2)cc1-c1ccnc2ccccc12 [Compound 30, 5-(3-(piperazin-1-yl)phenyl)-3-(quinolin-4-yl)pyridin-2-amine]	92	104		104	92	5
4.2	0.17 ± 0.06	Nc1ncc(-c2ccc(N3CCNCC3)cc2)cc1-c1cccc2ncccc12 [Compound 31, 5-(4-(piperazin-1-yl)phenyl)-3-(quinolin-5-yl)pyridin-2-amine]	96	103	117	105	95	
2.6	0.02 ± 0.002	COc1cc(-c2cnn3cc(-c4ccc(N5CCNCC5)cc4)cnc23)cc(OC)c1OC [Compound 32, 3-(3,4,5-trimethoxyphenyl)-6-[4-(1-piperazinyl)phenyl]pyrazolo[1,5-a]pyrimidine]	92	101		99		
4.7		COc1cc(OC)cc(-c2cncc(-c3ccc(N4CCNCC4)cc3)c2)c1 [Compound 33, 1-(4-(5-(3,5-dimethoxyphenyl)pyridin-3-yl)phenyl)piperazine]	95	100		101	92	
		Cc1nc(Nc2ncc(C(=O)Nc3c(C)cccc3Cl)s2)cc(N2CCN(CCO)CC2)n1 [Dasatinib, reference compound]	94	107		87		
		C#Cc1cccc(Nc2ncnc3cc(OCCOC)c(OCCOC)cc23)c1 [Erlotinib, reference compound]	96	107	108	99	84	84
		COc1cc2ncnc(Nc3ccc(F)c(Cl)c3)c2cc1OCCCN1CCOCC1 [Gefitinib, reference compound]	93	105	104	98	82	85
		CS(=O)(=O)CCNCc1ccc(-c2ccc3ncnc(Nc4ccc(OCc5cccc(F)c5)c(Cl)c4)c3c2)o1 [Lapatinib, reference compound]	100	104	104	98	92	89
		Cc1cn(-c2cc(NC(=O)c3ccc(C)c(Nc4nccc(-c5cccnc5)n4)c3)cc(C(F)(F)F)c2)cn1 [Nilotinib, reference compound]	99	106	105	100	101	91
		N#CC[C@H](C1CCCC1)n1cc(-c2ncnc3[nH]ccc23)cn1 [Ruxolitinib, reference compound]	101	105	88	100	90	
		CCN(CC)CCNC(=O)c1c(C)[nH]c(/C=C2\C(=O)Nc3ccc(F)cc32)c1C [Sunitinib, reference compound]	97	107		96		
		CCCS(=O)(=O)Nc1ccc(F)c(C(=O)c2c[nH]c3ncc(-c4ccc(Cl)cc4)cc23)c1F [Vemurafenib, reference compound]	103	100	102	95	77	
